Literature values, collected in US8318912B2, “Targeted immune conjugate comprising an antibody to glycophorin A and a M2e peptide” (priority 2006, dated 2012).

Biological target: vitamin B12-binding protein
Conditions: alternative docking pair to biotin-avidin; read-out: Kd of vitamin B12 bound by vitamin B12-binding protein

## cyanocobalamin [vitamin B12]
  Kd: 0.1 nM
